Results taken from patent US20250144091A1, “SITAGLIPTIN PREPARATION AND METHOD OF STORAGE THEREOF” (SAWAI PHARMACEUTICAL CO., LTD., priority 2023, published 2025).

Columns and labels:
[1] = set limit for nitrosamine in sitagliptin preparation; cited from earlier work
[2] = Acceptable daily intake of NTTP (EMA/FDA); conditions: 37 ng corresponds to 0.088 ppm
Experimental: Recently, the European Medicines Agency (EMA) and the U.S. Food and Drug Administration (FDA) have announced that 7-Nitroso-3-(trifluoromethyl)-5,6,7,8-tetrahydro[1,2,4]triazolo-[4,3-a]pyrazine (NTTP), which is classified into nitrosamines, has been detected in a sitagliptin preparation. Nitrosamines are known to be potentially carcinogenic, and an acceptable intake of NTTP is set at 37 ng daily. NTTP is produced by the reaction of 3-(trifluoromethyl) 5,6,7,8-tetrahydro[1,2,4]triazolo-[4,3-a]pyrazine, which is produced by hydrolysis of sitagliptin, with nitrogen oxides such as nitrous acid. Nitrogen oxides are contained in small amounts in additives, as well as in the water and air used in the preparation process. Although the production pathway of NTTP is expected as described above, its reactivity is unknown. Therefore, a specific method for reducing the amount of NTTP in a preparation was completely unknown.
Generally, the criterion for reporting the amount of related substances in a preparation is 1,000 ppm, but it is a very difficult task to suppress the production of NTTP in a sitagliptin preparation because a daily acceptable intake of NTTP of 37 ng corresponds to 0.088 ppm.

O=NN1CCn2c(nnc2C(F)(F)F)C1 [NTTP, 7-Nitroso-3-(trifluoromethyl)-5,6,7,8-tetrahydro[1,2,4]triazolo-[4,3-a]pyrazine]
acceptable intake of NTTP [1]: 37 ng daily | daily acceptable intake of NTTP expressed as content in the preparation [2]: 0.088 ppm
